Results reported in ChEMBL document CHEMBL3745675, “Design and optimization of selective azaindole amide M1 positive allosteric modulators” (Bioorg Med Chem Lett, 2016).

Tests used:
Plasma [1] = assay: Fraction unbound in C57BL/6j mouse plasma at 10 mg/kg, sc after 1 hr; assay type: ADME, organism-based; conditions: in vivo
[2] = Permeability in RRCK cells; assay type: ADME, cell-based, Canis lupus familiaris, MDCKII-LE; conditions: dog, MDCK; read-out: permeability
[3] = Ratio of unbound AUC in brain to plasma in C57BL/6j mouse; assay type: ADME, organism-based; conditions: read-out: Ratio AUC
[4] = Ratio of unbound AUC in brain to plasma in Wistar Hann rat; assay type: ADME, organism-based; conditions: read-out: Ratio AUC
[5] = Oral bioavailability in Wistar Hann rat; assay type: ADME, organism-based; conditions: in vivo
Plasma [6] = assay: Fraction unbound in C57BL/6j mouse plasma; assay type: ADME, cell-free
Plasma [7] = assay: Fraction unbound in Wistar Hann rat plasma; assay type: ADME, cell-free
Plasma [8] = assay: Fraction unbound in C57BL/6j mouse plasma at […], sc after 1 hr; assay type: ADME, organism-based; conditions: in vivo
[9] = Ratio drug level in brain to plasma in C57BL/6j mouse at […], sc after 1 hr; assay type: ADME, organism-based; conditions: read-out: BPR
[10] = Ratio of unbound AUC in brain to plasma in C57BL/6j mouse at […], sc after 1 hr; assay type: ADME, organism-based; conditions: read-out: Ratio AUC
[11] = Ratio drug level in brain to plasma in C57BL/6j mouse at 10 mg/kg, sc after 1 hr; assay type: ADME, organism-based; conditions: read-out: BPR
[12] = Ratio of unbound AUC in brain to plasma in C57BL/6j mouse at 10 mg/kg, sc after 1 hr; assay type: ADME, organism-based; conditions: read-out: Ratio AUC
Plasma [13] = assay: Fraction unbound in C57BL/6j mouse plasma at 10 mg/kg, sc after 0.5 hrs; assay type: ADME, organism-based; conditions: in vivo
[14] = Ratio drug level in brain to plasma in C57BL/6j mouse at 10 mg/kg, sc after 0.5 hrs; assay type: ADME, organism-based; conditions: read-out: BPR
[15] = Ratio of unbound AUC in brain to plasma in C57BL/6j mouse at 10 mg/kg, sc after 0.5 hrs; assay type: ADME, organism-based; conditions: read-out: Ratio AUC
Plasma [16] = assay: Fraction unbound in C57BL/6j mouse plasma at 10 mg/kg, sc after 2 hrs; assay type: ADME, organism-based; conditions: in vivo
[17] = Ratio drug level in brain to plasma in C57BL/6j mouse at 10 mg/kg, sc after 2 hrs; assay type: ADME, organism-based; conditions: read-out: BPR
[18] = Ratio of unbound AUC in brain to plasma in C57BL/6j mouse at 10 mg/kg, sc after 2 hrs; assay type: ADME, organism-based; conditions: read-out: Ratio AUC
Plasma [19] = assay: Fraction unbound in C57BL/6j mouse plasma at 10 mg/kg, sc after 4 hrs; assay type: ADME, organism-based; conditions: in vivo
[20] = Ratio drug level in brain to plasma in C57BL/6j mouse at 10 mg/kg, sc after 4 hrs; assay type: ADME, organism-based; conditions: read-out: BPR
[21] = Ratio of unbound AUC in brain to plasma in C57BL/6j mouse at 10 mg/kg, sc after 4 hrs; assay type: ADME, organism-based; conditions: read-out: Ratio AUC
[22] = AUC (0 to 24 hrs) in Wistar Hann rat at 0.5 mg/kg, iv; assay type: ADME, organism-based; set-up: dose 0.5 mg/kg, time < 24 hr, route intravenous; conditions: in vivo
[23] = Intial plasma concentration in Wistar Hann rat at 0.5 mg/kg, iv; assay type: ADME, organism-based
[24] = Volume of distribution at steady state in Wistar Hann rat at 0.5 mg/kg, iv; assay type: ADME, organism-based; conditions: in vivo, read-out: Vdss
[25] = Cmax in Wistar Hann rat at 2 mg/kg, po; assay type: ADME, organism-based; set-up: dose 2 mg/kg, route oral; conditions: in vivo
[26] = Tmax in Wistar Hann rat at 2 mg/kg, po; assay type: ADME, organism-based; conditions: in vivo
[27] = AUC in Wistar Hann rat at 2 mg/kg, po; assay type: ADME, organism-based; conditions: in vivo
[28] = Oral bioavailability in Wistar Hann rat at 2 mg/kg; assay type: ADME, organism-based; conditions: in vivo
[29] = Drug concentration in Wistar Hann rat brain at 5 mg/kg, sc after 1 hr; assay type: ADME, organism-based; conditions: read-out: Drug uptake
[30] = Drug concentration in Wistar Hann rat brain at 5 mg/kg, sc after 2 hrs; assay type: ADME, organism-based; conditions: read-out: Drug uptake
[31] = Drug concentration in Wistar Hann rat brain at 5 mg/kg, sc after 4 hrs; assay type: ADME, organism-based; conditions: read-out: Drug uptake
[32] = Drug concentration in Wistar Hann rat brain at 5 mg/kg, sc after 6 hrs; assay type: ADME, organism-based; conditions: read-out: Drug uptake
[33] = Drug concentration in Wistar Hann rat plasma at 5 mg/kg, sc after 1 hr; assay type: ADME, organism-based
[34] = Drug concentration in Wistar Hann rat plasma at 5 mg/kg, sc after 2 hrs; assay type: ADME, organism-based
[35] = Drug concentration in Wistar Hann rat plasma at 5 mg/kg, sc after 4 hrs; assay type: ADME, organism-based
[36] = Drug concentration in Wistar Hann rat plasma at 5 mg/kg, sc after 6 hrs; assay type: ADME, organism-based

With Cn1ccc(-c2ccc(Cn3cc(C(=O)N[C@H]4CCOC[C@@H]4O)c4ncccc43)cc2)n1 the “Cp(f)” value (Plasma [1]) was 560 nM, the Papp [2] was 31.5 ×10⁻⁶ cm/s and the Kp uu [3] was 0.2. For the same compound, the Kp uu [4] was 0.15, the bioavailability [5] was 69% and the “Cp(f)” value (Plasma [6]) was 0.027 nM. The “Cp(f)” value (Plasma [7]) was 0.092 nM, the “Cp(f)” value (Plasma [8]) was 302.2 nM and the Kp at 1 h [9] was 0.04. It also gave a Kp uu at 1 h [10] of 0.1, a Kp at 1 h [11] of 0.07 and a Kp uu at 1 h [12] of 0.18. The “Cp(f)” value (Plasma [13]) was 295 nM, the Kp at 0.5 h [14] was 0.14 and the Kp uu at 0.5 h [15] was 0.34. The “Cp(f)” value (Plasma [16]) was 379 nM, the Kp at 2 h [17] was 0.06 and the Kp uu at 2 h [18] was 0.16. The “Cp(f)” value (Plasma [19]) was 218 nM, the Kp at 4 h [20] was 0.1 and the Kp uu at 4 h [21] was 0.24. It also gave an AUC(0-t) at 24 h [22] of 1660 ng·h/mL, a C0 [23] of 535 ng/mL and a Vd [24] of 1.49 L/kg. The Cmax [25] was 600 ng/mL, the Tmax [26] was 1.5 h and the AUC [27] was 4510 ng·h/mL. It also gave a bioavailability [28] of 67.9%, a concentration at 1 h [29] of 1050 nM and a concentration at 2 h [30] of 944 nM. For the same compound, the concentration at 4 h [31] was 681 nM, the concentration at 6 h [32] was 409 nM and the concentration at 1 h [33] was 5030 nM. The concentration at 2 h [34] was 5460 nM, the concentration at 4 h [35] was 3190 nM and the concentration at 6 h [36] was 2150 nM.
